Reference: patent US20200268720A1, “METHODS OF USE OF A CLASS IIA HDAC INHIBITOR” (GlaxoSmithKline LLC, priority 2016, published 2020)
Entries after “also recorded” stand apart in the source; their conditions may differ.

Legend:
[1] = tested on: tumor macrophages; test: Macrophage phagocytosis and activation in tumors (IHC, immunocytochemistry, flow cytometry); type: in vivo, mouse
Experimental: Tumor cells were acquired from three DMSO and three TMP195 5-day treated autochthonous MMTV-PyMT mice. CD11b^+ cells were purified using the automacs (Miltenyi) automated machine according to manufacturer's protocol. CD11b cells were labeled with a CD11b-biotin antibody (101204, BioLegend) and retrieved with ultrapure biotin beads (Miltenyi 130-105-637). Following purification, CD11b^+ cells were cytospun at 300 rpm for 5 minutes onto slides. Cells were fixed in 4% PFA/Sucrose solution for 5 minutes at RT and stored in 4° C. until ready for use. Upon experimentation, slides were permeablized with 0.03% Triton-X for 10 minutes, followed by three 5 minute rinses with 1× PBS. Samples were blocked with 10% Normal Goat Serum (NGS) in 1×PBS for 1 hour at RT. Next cells were stained for the following antibodies anti-mouse/human CD11b (101201, BioLegend), anti-mouse F4/80 (Bio-Rad, MCA497R), and Alexa Fluor 594 anti-mouse CD326 (Ep-CAM) (118222, BioLegend) at 1:100, 1:50 and 1:25 dilution in 1% NGS/1×PBS respectively overnight at 4° C. The following morning, samples were rinsed three times with 1×PBS for five minutes each, replaced with Alexa Fluor 488 goat anti-rat IgG (405418, BioLegend) at 1:200 dilution in 1% NGS, and incubated for one hour at RT. All samples were counterstained with Dapi (P36930, Life Technologies) at 1:1000 dilution in 1% NGS. Next, the samples were rinsed three times for 5 minutes each with 1×PBS. Slides were dehydrated 2× with 95% ethanol and 1× with 100% ethanol. Coverslips were mounted using Prolong Gold antifade reagent (936930, Life Technologies) and imaged with Leica SP5X: Laser Scanning Confocal microscope at 40× magnification. For analysis immunocytochemistry images were assessed by using a co-localization pipeline. In general, the pipeline identified a primary image (nucleus) and a secondary image (CD11b^+). The overlapped images were identified as a “cell”. To avoid background signal, a minimum threshold was applied for the protein of interest (CD11b, F480 and EPCAM) and only the masked objects that had fell within the given dynamic range were considered CD11b or F480 positive. Finally the overlapped image identified as “cell” was masked with the threshold image of the EPCAM. Objects identified as positive for CD11b and EPCAM or F480 and EPCAM were normalized to the number of CD11b or F480 positive cells per image, and portrayed as an average percentage. A total of 60 individual CD11b+ cells and a total of 100 individual F480^+ cells were analyzed from each treatment group.

[2] = tested on: MMTV-PyMT tumor transplants; test: Orthotopic transplant of MMTV-PyMT tumor pieces into wild-type FVBN or athymic nude Foxn1nu mice; type: in vivo, mouse
Experimental: Two transplant experiments were performed where tumors were extracted from MMTV-PyMT mice and 50-100 mm^3 pieces were inserted into the 4th mammary fat pad of either wild-type FVBN mice or athymic nude Foxn1nu mice. Five days after implant mice were randomly placed into treatment groups and treated as indicated.

[3] = tested on: Human monocytes; test: In vitro antigen presenting cell (APC) and T cell proliferation experiments; type: cell-based
Excerpt: Blood was collected from healthy donors according to the guidelines of the American Association of Blood Banks and under an IRB-approved informed consent form was purchased from Research Blood Components (Boston, Mass.). Human monocytes were isolated from buffy coat preparations via positive selection as per the manufacturer's instructions (StemCell Technologies, Catalog #18058). Monocytes were differentiated into antigen presenting cells in RPMI Medium 1640 supplemented with GLUTAMAX™ (GIBCO), fetal bovine serum (10% v/v), IL-4 (10 ng/ml), GM-CSF (50 ng/ml), penicillin (100 U/ml), and streptomycin (100 ug/ml) for 5 days in the presence of either 0.1% (v/v) DMSO or 300 nM TMP195. Cells were collected by washing and incubation with a solution of 5 mM EDTA in PBS (Ca2^+ and Mg2^+-free), prior to flow cytometric analysis of CD80 (Biolegend #305208) and CD86 (Biolegend #305418). Alternatively, harvested APCs were counted and co-cultured in culture medium (no DMSO or inhibitor present) with heterologous CD4^+ T cells (isolated from buffy coats via negative selection following manufacturer's instructions, StemCell Technologies, Catalog #15062) that had been labeled with CELLTRACE™ CFSE (ThermoFisher catalog #C34554) at a 10:1 T cell:APC ratio. T cell proliferation was stimulated by the addition of 200 pg/ml anti-CD3 (Biolegend Catalog #317326), and proliferation was quantified after 72 hours of co-culture by the dilution of CFSE using FlowJo software (version 9.4, Treestar, Inc.).

[4] = tested on: human breast cancer cell lines (BT20, MCF7, HCC202, T47D, MDA-MB-453 and MDA-MB-436); test: In vitro cell death assay (CellTiter-Glo), human lines; type: cell-based; conditions: 0, 0.1, 1, 10 μM, 48 hours
Experimental: The human breast cancer cell lines (BT20, MCF7, HCC202, T47D, MDA-MB-453 and MDA-MB-436) were obtained from ATCC. Prior to use, cell line authentication was performed by either STR profiling at Dana-Farber Cancer Institute or by Fluidigm based fingerprinting with a panel of SNPs at The Broad Institute. Cell lines were tested for mycoplasma with the MycoAlert PLUS Mycoplasma Detection Kit (Lonza LT07) according to manufacturer's instructions. Mouse breast tumor cell lines were established from 4 different MMTV-PyMT tumor bear mice. Mouse breast tumor cell line 7333 was implanted into wild-type littermates and once the tumor formed it was removed and used to generate the tumor cell line “MMTV”. All cells were plated at 1E4 cells/well in a 96 well plate. Cells were treated for 48 hours and CellTiter-Glo was used to assess cell viability.

[5] = tested on: MMTV-PyMT tumors; test: Single agent efficacy on tumor burden in autochthonous MMTV-PyMT mice; type: in vivo, mouse
[6] = IL-4 and GM-CSF, 5 days, 300 nM TMP195 vs 0.1% DMSO

Structure (SMILES): CC(C)(CNC(=O)c1cccc(-c2noc(C(F)(F)F)n2)c1)c1coc(-c2ccccc2)n1 [TMP195, N-(2-methyl-2-(2-phenyloxazol-4-yl)propyl)-3-(5-(trifluoromethyl)-1,2,4-oxadiazol-3-yl)benzamide]
- apoptotic bodies within tumor macrophages (cleaved caspase 3 IHC) ([1]; 5 days of TMP195): appearance of apoptotic bodies
- intracellular EPCAM in F480+ and CD11b+ cells (phagocytosed breast tumor cells) ([1]; 5 days of TMP195): co-stain as EPCAM^+
- cells resembling tingible body macrophages (F480 IHC) ([1]; 5 days of TMP195 vs vehicle): marked appearance
- proportion of F480+ and CD11b+ cells that express CD40 ([1]; 5 days of TMP195 vs vehicle): higher proportion
- tumor burden in wild-type FVBN recipients ([2]; treated daily for 16 days, 50 mg/kg TMP195 vs DMSO): tumor burden was reduced
- transplant growth in T cell deficient athymic nude (Foxn1nu) recipient mice ([2]; treated for 20 days): failed to inhibit transplant growth
- T cell co-stimulatory function of monocytes differentiated to antigen presenting cells [3, 6]: promoted T cell co-stimulatory function
- proportion of cells expressing the co-stimulatory molecule CD86 [3, 6]: increase
- proliferation (Division Index) of CFSE-labeled naive CD4+ T cells co-cultured with differentiated monocytes ([3]; monocytes differentiated in 300 nM TMP195 vs DMSO, 10:1 T cell:APC): higher degree of proliferation
- cell viability, 6 human breast cancer cell lines [4]: not directly cytotoxic; also recorded: does not affect cell viability
- rate of tumor growth ([5]; total tumor burden 150-800 mm^3 at start, 13 days, 50 mg/kg TMP195 IP daily vs DMSO): significantly reduced
- tumor burden, single agent ([5]; total tumor burden 200-600 mm^3 at start, 50 mg/kg TMP195 IP daily vs vehicle): significant reduction
